Read-outs that look alike come from different tables or passages of the source. Bridge positions count the residues as written; N and C are the ends. Peptide text beside a SMILES is read from it.
How the values were obtained:
integrin αvβ8 [1] = biological target: T1, integrin αvβ8 (Homo sapiens, UniProt P06756+P26012); assay: ELISA competition assay, integrin αvβ8 binding to LAP
integrin αvβ6 [2] = biological target: T2, integrin αvβ6 (Homo sapiens, UniProt P06756+P18564); assay: ELISA competition assay, integrin αvβ6 binding to LAP; conditions: mean
integrin αvβ3 = integrin αvβ3 (Homo sapiens, UniProt P05106+P06756); assay: ELISA competition assay, integrin αvβ3; type: binding
integrin αvβ5 = integrin αvβ5 (Homo sapiens, UniProt P06756+P18084); assay: ELISA competition assay, integrin αvβ5; type: binding
integrin α8β1 = integrin α8β1 (Homo sapiens, UniProt P05556+P53708); assay: ELISA competition assay, integrin α8β1; type: binding
integrin αvβ1 = integrin αvβ1 (Homo sapiens, UniProt P05556+P06756); assay: ELISA competition assay, integrin αvβ1; type: binding
Mouse αvβ6 = biological target: T3, Mouse αvβ6 (Mus musculus, UniProt P43406+Q9Z0T9); assay: ELISA competition assay, mouse integrin αvβ6; type: binding
T3 sequence (P43406 31-988 limits assumed): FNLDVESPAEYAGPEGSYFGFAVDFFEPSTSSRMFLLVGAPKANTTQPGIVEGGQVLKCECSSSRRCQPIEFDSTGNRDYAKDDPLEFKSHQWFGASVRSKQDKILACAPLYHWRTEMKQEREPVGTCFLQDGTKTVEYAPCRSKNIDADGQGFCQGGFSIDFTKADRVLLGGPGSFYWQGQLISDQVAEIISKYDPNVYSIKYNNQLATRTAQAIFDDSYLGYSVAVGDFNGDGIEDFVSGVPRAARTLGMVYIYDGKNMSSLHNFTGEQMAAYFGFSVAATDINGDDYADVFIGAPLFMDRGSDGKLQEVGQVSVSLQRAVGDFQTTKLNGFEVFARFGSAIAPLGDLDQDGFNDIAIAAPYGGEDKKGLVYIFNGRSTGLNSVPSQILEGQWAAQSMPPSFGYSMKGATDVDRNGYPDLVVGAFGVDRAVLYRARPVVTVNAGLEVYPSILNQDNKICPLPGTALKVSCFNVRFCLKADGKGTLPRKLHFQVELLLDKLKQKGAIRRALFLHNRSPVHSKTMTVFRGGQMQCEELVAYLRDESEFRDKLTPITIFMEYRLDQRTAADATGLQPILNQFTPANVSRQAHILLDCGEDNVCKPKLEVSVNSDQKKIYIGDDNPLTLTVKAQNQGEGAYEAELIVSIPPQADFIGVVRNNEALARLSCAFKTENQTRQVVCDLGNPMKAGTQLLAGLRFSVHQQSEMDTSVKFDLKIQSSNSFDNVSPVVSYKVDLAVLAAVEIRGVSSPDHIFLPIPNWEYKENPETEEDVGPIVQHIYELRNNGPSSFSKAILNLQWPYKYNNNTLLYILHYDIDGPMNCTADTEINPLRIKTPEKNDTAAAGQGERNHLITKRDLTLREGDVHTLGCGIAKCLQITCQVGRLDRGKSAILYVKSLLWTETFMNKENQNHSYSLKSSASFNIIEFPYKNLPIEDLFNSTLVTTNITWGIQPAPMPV
T3 sequence (Q9Z0T9 22-707 limits assumed): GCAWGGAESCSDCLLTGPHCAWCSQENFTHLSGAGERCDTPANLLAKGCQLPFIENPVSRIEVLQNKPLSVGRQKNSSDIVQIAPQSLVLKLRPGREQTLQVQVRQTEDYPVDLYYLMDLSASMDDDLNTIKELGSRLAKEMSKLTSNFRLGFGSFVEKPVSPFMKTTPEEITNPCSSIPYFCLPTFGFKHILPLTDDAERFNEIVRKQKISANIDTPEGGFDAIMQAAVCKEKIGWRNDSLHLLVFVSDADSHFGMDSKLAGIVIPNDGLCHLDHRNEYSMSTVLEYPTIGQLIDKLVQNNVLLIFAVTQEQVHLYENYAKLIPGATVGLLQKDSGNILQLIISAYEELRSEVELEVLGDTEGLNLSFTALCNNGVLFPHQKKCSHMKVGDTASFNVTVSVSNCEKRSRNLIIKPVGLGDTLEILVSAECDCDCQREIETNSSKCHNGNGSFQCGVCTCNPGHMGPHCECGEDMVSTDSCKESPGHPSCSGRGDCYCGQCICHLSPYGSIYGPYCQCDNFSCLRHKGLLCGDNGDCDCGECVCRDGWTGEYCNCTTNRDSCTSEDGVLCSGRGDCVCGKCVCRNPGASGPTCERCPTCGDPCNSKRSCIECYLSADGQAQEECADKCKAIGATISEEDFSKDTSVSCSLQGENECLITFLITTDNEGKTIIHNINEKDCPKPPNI

integrin α5β1 = integrin α5β1 (Homo sapiens, UniProt P05556+P08648); assay: ELISA competition assay, integrin α5β1; type: binding
integrin αvβ8 [3] = biological target: T1, integrin αvβ8; assay: AlphaLISA competition assay vs LAP, biotinylated αvβ8; type: binding
integrin αvβ6 [4] = biological target: T2, integrin αvβ6; assay: AlphaLISA competition assay vs LAP, biotinylated αvβ6; type: binding
[5] = test system: αvβ6/8 vs other RGD-integrins; assay: Selectivity and potency gain for αvβ6/8, worked out from integrin IC50 values; type: binding, human; conditions: 24 and 30 vs 14; 35 vs 28; 36 vs 30; 47 vs 36
integrin αIIbβ3 = biological target: T4, integrin αIIbβ3 (Homo sapiens, UniProt P05106+P08514); assay: ELISA competition assay, integrin αIIbβ3; type: binding
T4 sequence (P08514 32-993 limits assumed): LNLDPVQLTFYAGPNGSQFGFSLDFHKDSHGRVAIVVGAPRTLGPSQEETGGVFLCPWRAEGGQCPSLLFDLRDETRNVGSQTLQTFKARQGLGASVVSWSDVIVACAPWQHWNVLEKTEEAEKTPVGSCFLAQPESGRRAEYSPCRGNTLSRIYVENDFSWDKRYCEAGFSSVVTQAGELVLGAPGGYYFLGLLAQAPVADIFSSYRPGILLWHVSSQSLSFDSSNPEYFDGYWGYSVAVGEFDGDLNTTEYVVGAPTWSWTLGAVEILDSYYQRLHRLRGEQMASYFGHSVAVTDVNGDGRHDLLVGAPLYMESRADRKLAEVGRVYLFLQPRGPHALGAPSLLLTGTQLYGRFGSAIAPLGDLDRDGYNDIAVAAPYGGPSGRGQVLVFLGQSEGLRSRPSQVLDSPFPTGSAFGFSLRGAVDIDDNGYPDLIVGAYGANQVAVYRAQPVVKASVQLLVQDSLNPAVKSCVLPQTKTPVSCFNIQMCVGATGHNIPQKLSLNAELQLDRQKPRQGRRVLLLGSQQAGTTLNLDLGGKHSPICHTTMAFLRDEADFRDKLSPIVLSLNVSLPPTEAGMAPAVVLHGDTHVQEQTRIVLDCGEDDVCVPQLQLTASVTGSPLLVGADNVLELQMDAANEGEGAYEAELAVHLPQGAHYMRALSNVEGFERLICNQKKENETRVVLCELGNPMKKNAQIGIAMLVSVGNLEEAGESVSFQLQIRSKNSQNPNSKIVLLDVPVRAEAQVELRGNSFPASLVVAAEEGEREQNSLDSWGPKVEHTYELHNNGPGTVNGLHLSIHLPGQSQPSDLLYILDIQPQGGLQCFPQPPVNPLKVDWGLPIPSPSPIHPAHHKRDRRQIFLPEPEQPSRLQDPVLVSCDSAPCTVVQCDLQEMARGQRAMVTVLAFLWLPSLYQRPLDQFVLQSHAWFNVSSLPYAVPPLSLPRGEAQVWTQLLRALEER
T4 sequence (P05106 27-718 limits assumed): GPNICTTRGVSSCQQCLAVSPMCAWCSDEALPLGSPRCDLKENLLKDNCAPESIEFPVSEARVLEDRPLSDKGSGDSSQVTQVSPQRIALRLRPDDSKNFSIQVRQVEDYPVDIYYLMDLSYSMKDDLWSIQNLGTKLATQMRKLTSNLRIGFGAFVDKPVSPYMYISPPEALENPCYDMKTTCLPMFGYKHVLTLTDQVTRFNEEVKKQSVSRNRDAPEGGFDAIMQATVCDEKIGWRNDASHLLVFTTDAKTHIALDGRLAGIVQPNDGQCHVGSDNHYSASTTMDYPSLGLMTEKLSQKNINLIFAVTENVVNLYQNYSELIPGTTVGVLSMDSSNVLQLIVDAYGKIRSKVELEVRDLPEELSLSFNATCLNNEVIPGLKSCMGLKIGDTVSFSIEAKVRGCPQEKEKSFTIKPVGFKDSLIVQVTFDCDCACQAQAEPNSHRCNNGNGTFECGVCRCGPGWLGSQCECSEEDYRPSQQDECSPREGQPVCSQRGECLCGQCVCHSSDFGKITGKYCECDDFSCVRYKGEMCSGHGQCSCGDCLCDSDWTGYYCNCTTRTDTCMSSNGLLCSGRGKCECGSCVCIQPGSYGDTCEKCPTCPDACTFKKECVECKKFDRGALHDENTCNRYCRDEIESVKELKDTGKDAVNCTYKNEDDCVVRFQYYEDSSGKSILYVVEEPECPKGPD

[6] = αvβ6 IC50, ELISA competition vs LAP, n ≥ 3

Compound `COc1ccc([C@H](CC(=O)O)N2CCN(CCCc3ccc4c(n3)NCCC4)C2=O)cn1` [MK-0429, reference compound] has an IC50 (integrin αvβ8 [1]; read-out: αvβ8 IC50, ELISA competition vs LAP, mean, n ≥ 3) of 0.7 nM, an IC50 (integrin αvβ6 [2]; read-out: Human αvß6 IC50, ELISA run in triplicate, Table S1) of 1 nM and an IC50 (integrin αvβ6 [2]; read-out: αvβ6 IC50, ELISA competition vs LAP, n ≥ 3) of 1.3 nM. It also gave an IC50 (integrin αvβ3; read-out: αvβ3 IC50, ELISA competition, mean, n ≥ 3) of 0.7 nM, an IC50 (integrin αvβ5; read-out: αvβ5 IC50, ELISA competition) of 0.08 nM and an IC50 (integrin α8β1; read-out: α8β1 IC50, ELISA competition) of 9 nM. It also gave an IC50 (integrin αvβ1; read-out: αvβ1 IC50, ELISA competition) of 1 nM, an IC50 (Mouse αvβ6; read-out: Mouse αvß6 IC50, ELISA run in triplicate, mean, Table S1) of 2 nM and an IC50 (integrin α5β1; read-out: α5β1 IC50, ELISA competition) of 18 nM.
For `CC[C@H](C)[C@H](NC(=O)[C@H](CC(C)C)NC(=O)[C@H](CC(=O)O)NC(=O)CNC(=O)[C@H](CCCNC(=N)N)NC(=O)[C@H](CCC(N)=O)NC(=O)[C@H](Cc1ccccc1)NC(=O)[C@H](Cc1ccc(O)cc1)NC(=O)[C@@H]1CCC(=O)NCC(=O)NCC(=O)N[C@@H](C)C(=O)NCC(=O)N[C@@H](Cc2c[nH]cn2)C(=O)N[C@@H](C(C)C)C(=O)N2CCC[C@H]2C(=O)N1)C(=O)N[C@@H](CO)C(=O)N[C@@H](Cc1ccccc1)C(=O)N[C@@H](Cc1ccc(O)cc1)C(=O)NCC(=O)O` [lassotide 21] (GGAGHVPEYFQRGDLISFYG-OH; lactam N-8; C-terminus assumed), the IC50 (integrin αvβ6 [2]; Human αvß6 IC50, ELISA run in triplicate, Table S1) was 40 nM, the IC50 (integrin αvβ8 [3]) was 39 nM and the IC50 (integrin αvβ6 [4]) was 16 nM. It also gave an IC50 (Mouse αvβ6) of 44 nM.
In the case of `CC[C@H](C)[C@H](NC(=O)[C@H](CC(C)C)NC(=O)[C@H](CC(=O)O)NC(=O)CNC(=O)[C@H](CCCNC(=N)N)NC(=O)[C@@H](NC(=O)[C@H](Cc1ccccc1)NC(=O)[C@H](Cc1ccc(O)cc1)NC(=O)[C@@H]1CCC(=O)NCC(=O)NCC(=O)N[C@@H](CCCCN)C(=O)NCC(=O)N[C@@H](Cc2c[nH]cn2)C(=O)N[C@@H](C(C)C)C(=O)N2CCC[C@H]2C(=O)N1)C(C)C)C(=O)N[C@@H](CO)C(=O)N[C@@H](Cc1ccccc1)C(=O)N[C@@H](Cc1ccc(O)cc1)C(=O)N[C@@H](CCCCN)C(=O)O` [lassotide 35] (GGKGHVPEYFVRGDLISFYK-OH; lactam N-8; C-terminus assumed), the IC50 (integrin αvβ8 [1]) is reported as 36 nM, the IC50 (integrin αvβ6 [2]; [6]) is reported as 25 nM and the “improvement in potency (IC50) for αvβ6/8 relative to parent lassotide” value [5] is reported as “up to 2 fold”.
Work on `CC(C)C[C@H](NC(=O)[C@H](CC(=O)O)NC(=O)CNC(=O)[C@H](CCCNC(=N)N)NC(=O)[C@@H](NC(=O)[C@H](Cc1ccccc1)NC(=O)[C@H](Cc1ccc(O)cc1)NC(=O)[C@@H]1CCC(=O)NCC(=O)NCC(=O)N[C@@H](CCCNC(=N)N)C(=O)NCC(=O)N[C@@H](Cc2c[nH]cn2)C(=O)N[C@@H](C(C)C)C(=O)N2CCC[C@H]2C(=O)N1)C(C)C)C(=O)N[C@@H](CCC(N)=O)C(=O)N[C@@H](CO)C(=O)N[C@@H](Cc1ccccc1)C(=O)N[C@@H](Cc1ccc(O)cc1)C(=O)NCC(=O)O` [lassotide 38] (GGRGHVPEYFVRGDLQSFYG-OH; lactam N-8) yielded an IC50 (integrin αvβ6 [2]; [6]) of 3 nM, an IC50 (integrin αvβ3) of 185 nM and an IC50 (integrin αvβ5) of over 10000 nM. The IC50 (integrin α8β1) was 1290 nM, the IC50 (integrin αvβ1) was 13 nM and the IC50 (integrin αIIbβ3) was 126 nM. The IC50 (Mouse αvβ6) was 4 nM and the IC50 (integrin α5β1) was 397 nM.
